Structures are written as SMILES.

One assay relates to Cyfip^85.1/+ flies. In words: competition for food assay (total number of social events) in Cyfip haploinsufficient flies. The following applies: Cyfip^85.1/+ flies; Diazepam 50 μM in food, 1 day. It is filed as in vivo, Drosophila. The protocol: Experiments were performed with socially experienced, 3-7 days-old male flies. Groups of eight males from the same genotype were anesthetized 24 h prior to the assay and placed in vials with food. On the day of the assay, the males were transferred without anesthesia to an empty vial and were deprived of food for 90 minutes, after which they were exposed to a food droplet and given 2 minutes to acclimate to this disturbance. The flies were then observed simultaneously for an additional 2 minutes, and the total number of social events was scored. Monitored social events were i.e. approaches, lunges, tussles, wing threat and the initiation of courtship. Of note, one interaction involving two or more flies was counted as one social event in total (Zwarts (2011), PNAS 108, 17070-17075. The behavioral assays were conducted in a behavioral chamber (25° C., 60-70% humidity) between 8 a.m. and 11 a.m. Statistics were calculated using a one-way fixed effect ANOVA model, and Kruskal Wallis test in combination with Dunn's multiple comparison test.
Example 8. GABA augmentation fully normalizes the behavioral abnormalities of Cyfip^85.1/+ flies. GABA levels were augmented in Cyfip^85.1/+ flies in three distinct ways: flies were fed either GABA, DL-2,4-diaminobutyric acid (DABA) which is a GABA-transaminase inhibitor and/or a GABA reuptake inhibitor or the anticonvulsant valproic acid (VPA) which induces GABA release (Chateauvieux (2010), Journal of biomedicine & biotechnology 2010; Coghlan (2012), Neurosci Biobehav Rev 36, 2044-2055; Reynolds (2007), Current medicinal chemistry 14, 2799-2812). All compounds were purchased from Sigma-Aldrich and were used as described before (Kanellopoulos (2012), J Neurosci. 32(38):13111-24; Zwarts (2011), PNAS 108, 17070-17075). In brief, the drugs were dissolved as per the manufacturer's instructions and used at the following concentrations: GABA at 50 μM, DABA 100 μM, Valproic acid (VPA) at 1 mM and Diazepam at 50 μM. Compounds in solution were mixed with Formula 4-24® Instant Drosophila Medium (blue food) in water. Approximately 50-60 adult flies were placed in plastic vials containing 500 μl of each solution on top of an agar matrix and allowed to feed ad libitum before behaviour analysis. Vehicle treatment consisted of solvent added to blue food alone.
Example 16. Drug screening to identify compounds that ameliorate social behavior deficits in flies with Cyfip haploinsufficiency. Control (w1118) or CYFIP (Cyfip^85.1/+) flies were treated, i.e. fed, with various compounds from the Prestwick Chemical Library® as described in Examples 8 and 15. All compounds were used at a concentration of 50 μM. The total number of social interactions was analyzed in a competition for food assay at various time-points (1, 2 or 5 days) of treatment with the compound or vehicle controls as described in Example 2.

The next assay has as its system Cyfip1+/− mice. Kind of assay: three-chamber test (sociability and social novelty) in Cyfip1+/− mice. It is filed as in vivo, mouse. To be noted: for social preference deficit (sociability index, stranger 1 vs object): acute diazepam i.p. 0.2 mg/ml at 1% of bodyweight, 30 min prior to test. On the procedure:
Sociability and social novelty were evaluated using the three-chamber test previously described (Crawley (2007), Brain Pathology 17(4), 448-459). Briefly, the set-up consisted of a rectangular non-transparent Plexiglas box divided into three compartments, separated by two partitions (each compartment: 30×19×21 cm). These partitions contained a small passage in the middle (8×7 cm; that can be sealed with small guillotine doors), which allowed the mouse to transition between adjacent compartments. During the acclimation phase, mice were allowed to explore the empty central compartment for 5 min. At the start of the test, both sliding doors were closed and each of the outer compartments were equipped with a wired cage (10 cm diameter, 20 cm high), one containing an object (50 ml Falcon Tube or a glue stick) and the other containing a mouse (i.e. stranger 1). Holding cages were used to avoid inter-male fighting but allow visual and olfactory contact between mice. During the sociability phase, the guillotine doors were removed and mice could freely explore the entire set-up for 10 min. It is expected from healthy mice that more interest is shown towards another mouse compared to an object. After 10 min, mice were placed into an empty housing cage, and the holding cage containing the object was replaced by a holding cage containing a novel mouse (i.e. stranger 2). During the next phase (social memory), the stranger 1 mouse has become familiar and it is expected that healthy mice show more interest towards the stranger 2 mouse compared to the stranger 1 mouse. The guillotine doors were removed and mice were allowed to explore the set-up for another 10 min. The location of the stranger 1 and stranger 2 mice was counterbalanced between animals and the box was cleaned with 70% EtOH solution after each animal. All stranger mice used were of the same sex as the tested mouse and had never been in contact with the test mice. Mice were recorded with a camera and were tracked with Ethovision software (Noldus, Wageningen, The Netherlands). Time spent in close proximity (<2 cm) to the holding cages was recorded. Preference index was calculated as: Time stranger 1/(Time stranger 1+Time object) and Timestranger 2/(Timestranger 1+Timestranger 2) for sociability and social memory/social novelty, respectively.
Diazepam, a GABA-A positive modulator, was purchased from Roche (Basel, Switzerland) (diazepam already dissolved in saline at a concentration of 5 mg/ml). Diazepam was further diluted in saline and adjusted to the dose of 0.2 mg/ml. Mice were first tested in the three-chamber test in control conditions. 72 h afterwards, all mice were administered intraperitoneally with diazepam at 1% of bodyweight 30 min prior to re-testing. […]

In the next assay the test system is WT mice. Kind of assay: three-chamber test (sociability) in WT mice. To be noted: acute diazepam i.p. 0.2 mg/ml at 1% of bodyweight, 30 min prior to test. It is filed as in vivo, mouse. On the procedure:
Sociability and social novelty were evaluated using the three-chamber test previously described (Crawley (2007), Brain Pathology 17(4), 448-459). Briefly, the set-up consisted of a rectangular non-transparent Plexiglas box divided into three compartments, separated by two partitions (each compartment: 30×19×21 cm). These partitions contained a small passage in the middle (8×7 cm; that can be sealed with small guillotine doors), which allowed the mouse to transition between adjacent compartments. During the acclimation phase, mice were allowed to explore the empty central compartment for 5 min. At the start of the test, both sliding doors were closed and each of the outer compartments were equipped with a wired cage (10 cm diameter, 20 cm high), one containing an object (50 ml Falcon Tube or a glue stick) and the other containing a mouse (i.e. stranger 1). Holding cages were used to avoid inter-male fighting but allow visual and olfactory contact between mice. […] Mice were recorded with a camera and were tracked with Ethovision software (Noldus, Wageningen, The Netherlands). Time spent in close proximity (<2 cm) to the holding cages was recorded. Preference index was calculated as: Time stranger 1/(Time stranger 1+Time object) and Timestranger 2/(Timestranger 1+Timestranger 2) for sociability and social memory/social novelty, respectively. […]

Turning to `CN1C(=O)CN=C(c2ccccc2)c2cc(Cl)ccc21` [diazepam], the “social deficits (social events)” value in the assay on Cyfip^85.1/+ flies is given as “restored the social deficits”. Moreover, in the assay with Cyfip1+/− mice (acute diazepam i.p.), the “increase in social preference after treatment (within-subject, control vs diazepam-treated)” value is “approximately 50%”. Further, the figures for the “social preference deficit (sociability index, stranger 1 vs object)” value with Cyfip1+/− mice and in the assay on Cyfip1+/− mice (listed as Diazepam) were “rescued the social preference deficit” and “restores deficits in social behavior”, respectively. The “preference for the novel mouse (social novelty index)” value in the assay on Cyfip1+/− mice (acute diazepam i.p., genotype difference not statistically significant) is “slightly increase”. The “social preference (sociability index)” value in the assay with WT mice is “slight decrease in social preference”.

The values are drawn from patent US20240139205A1, “MODULATORS OF ARALAR FOR TREATING NEUROLOGICAL DISORDERS” (Universite de Lausanne, priority 2020, published 2024).
